Measured values published in US8440613B2, “Controlling diseases caused by trichomonadida” (Bayer Intellectual Property GmbH, priority 2008, dated 2013).

Assays:
histomonad field strain = assay: Cage experiments; histomonad activity in turkeys; assay type: in vivo; conditions: day -4 to +14; for Average lesions in the appendix / Infection-related lesions in the liver: score 0=no lesions, 4=severe lesions
Description: Histomonad-free male turkeys aged 10 days received nifurtimox or the comparative compound nitarson in the concentration given in “ppm” together with the feed from day −4 (=4 days prior to infection) to day 14. Infection is carried out on day 0, 10 animals are kept per group cage. 1 to 3 such groups are employed per dose.
The infection is carried out with a histomonad field strain which is passaged in the laboratory and stored in liquid nitrogen. On day 0, in each case 5 animals of a cage (with the exception of the noninfected control) are infected intracloacally with 250 000 histomonads in each case 1 ml of Dwyer's medium (=direct infection). After a few days, these infected animals excrete fresh histomonads and thus transmit the pathogen to the remaining 5 animals of the cage (=indirect infection).
To assess the activity, the criteria of McDougald and Hu 2001 (7) are taken into consideration: • the infection-caused mortality • the weight gain from the beginning to the end of the experiment • feed consumption • feed conversion • macroscopic assessment of the infection-related lesions in the appendices (caecum) and in the liver. In this assessment, score 0=no lesions and score 4=severe lesions.

Heterakis spumosa [1] = assay: Anthelmintic activity against Heterakis spumosa in mice; assay type: in vivo; conditions: Heterakis spumosa (mouse); treated on four consecutive days 35 days post-infection; worms counted day 7 after treatment
Description: Male mice (strain Bor CFW, body weight between 25 and 30 g) are kept in Makrolon cages (3 animals/cage) and fed ad lib with water and SNIFF rat food (10 mm pellets). Mice are infected with Heterakis spumosa by oral administration of 90 embryonated eggs. The eggs had been obtained from female worms which had been isolated from the mices colon 40 days post-infection. The eggs were incubated for a further 3 weeks at 37° C. 35 days post-infection, the mice were treated with the respective dose of PF1022A or emodepside on four consecutive days. PF1022A is suspended in Cremophor EL. On day 7 after the treatment, the mice are sacrificed, the ileum/caecum/colon region is removed, and the worms are counted with the naked eye. The ratio of the number of expelled worms in percent of the total number of worms in untreated, infected control animals is defined as the measure for the anthelmintic activity.

Heterakis spumosa [2] = conditions: murine nematode Heterakis spumosa; oral dose; refs (13, 15); cited from earlier work
Ascaridia galli = conditions: cited from earlier work
[3] = direct infection no, nifurtimox 30 ppm in feed, study of Table 1
[4] = direct infection no, nifurtimox 60 ppm in feed, study of Table 1
[5] = direct infection no, nifurtimox 100 ppm in feed, study of Table 2
[6] = direct infection no, nifurtimox 120 ppm in feed, study of Table 1
[7] = direct infection no, nifurtimox 200 ppm in feed, study of Table 1
[8] = direct infection no, nifurtimox 200 ppm in feed, study of Table 2
[9] = direct infection no, nifurtimox 300 ppm in feed, study of Table 2
[10] = direct infection no, nifurtimox 400 ppm in feed, study of Table 2
[11] = direct infection yes, nifurtimox 30 ppm in feed, study of Table 1
[12] = direct infection yes, nifurtimox 60 ppm in feed, study of Table 1
[13] = direct infection yes, nifurtimox 100 ppm in feed, study of Table 2
[14] = direct infection yes, nifurtimox 120 ppm in feed, study of Table 1
[15] = direct infection yes, nifurtimox 200 ppm in feed, study of Table 1
[16] = direct infection yes, nifurtimox 200 ppm in feed, study of Table 2
[17] = direct infection yes, nifurtimox 300 ppm in feed, study of Table 2
[18] = direct infection yes, nifurtimox 400 ppm in feed, study of Table 2
[19] = nifurtimox 30 ppm in feed, study of Table 1
[20] = nifurtimox 60 ppm in feed, study of Table 1
[21] = nifurtimox 100 ppm in feed, study of Table 2
[22] = nifurtimox 120 ppm in feed, study of Table 1
[23] = nifurtimox 200 ppm in feed, study of Table 1
[24] = nifurtimox 200 ppm in feed, study of Table 2
[25] = nifurtimox 300 ppm in feed, study of Table 2
[26] = nifurtimox 400 ppm in feed, study of Table 2
[27] = direct infection no, nitarsone 187.5 ppm in feed, study of Table 1
[28] = direct infection no, nitarsone 187.5 ppm in feed, study of Table 2
[29] = direct infection yes, nitarsone 187.5 ppm in feed, study of Table 1
[30] = direct infection yes, nitarsone 187.5 ppm in feed, study of Table 2
[31] = nitarsone 187.5 ppm in feed, study of Table 1
[32] = nitarsone 187.5 ppm in feed, study of Table 2

In the case of CC1CS(=O)(=O)CCN1N=Cc1ccc([N+](=O)[O-])o1 (stereo not drawn) [nifurtimox], the “Mean weight gain (g) between day 0 and the time of death” value (shortened to “Mean weight gain”) (histomonad field strain; [3]) was 730 g, the “Mean weight gain” value (histomonad field strain; [4]) was 838 g and the “Mean weight gain” value (histomonad field strain; [5]) was 581 g. For the same molecule, the “Mean weight gain” value (histomonad field strain; [6]) was 744 g, the “Mean weight gain” value (histomonad field strain; [7]) was 744 g and the “Mean weight gain” value (histomonad field strain; [8]) was 525 g. For the same molecule, the “Mean weight gain” value (histomonad field strain; [9]) was 750 g, the “Mean weight gain” value (histomonad field strain; [10]) was 832 g and the “Mean weight gain” value (histomonad field strain; [11]) was 235 g. For the same molecule, the “Mean weight gain” value (histomonad field strain; [12]) was 304 g, the “Mean weight gain” value (histomonad field strain; [13]) was 135 g and the “Mean weight gain” value (histomonad field strain; [14]) was 182 g. The “Mean weight gain” value (histomonad field strain; [15]) was 264 g, the “Mean weight gain” value (histomonad field strain; [16]) was 270 g and the “Mean weight gain” value (histomonad field strain; [17]) was 450 g. The “Mean weight gain” value (histomonad field strain; [18]) was 691 g, the “Mean feed consumption between day 0 and day 14” value (histomonad field strain; [19]) was 9.00 kg and the “Mean feed conversion between day 0 and day 14” value (histomonad field strain; [19]) was 1.88. For the same molecule, the “Mortality caused by histomoniasis” value (histomonad field strain; [19]) was 5, the “Mean feed consumption between day 0 and day 14” value (histomonad field strain; [20]) was 9.68 kg and the “Mean feed conversion between day 0 and day 14” value (histomonad field strain; [20]) was 1.70. The “Mortality caused by histomoniasis” value (histomonad field strain; [20]) was 6, the “Mean feed consumption between day 0 and day 14” value (histomonad field strain; [21]) was 6.69 kg and the “Mean feed conversion between day 0 and day 14” value (histomonad field strain; [21]) was 2.32. For the same molecule, the “Mortality caused by histomoniasis” value (histomonad field strain; [21]) was 13, the “Mean feed consumption between day 0 and day 14” value (histomonad field strain; [22]) was 8.70 kg and the “Mean feed conversion between day 0 and day 14” value (histomonad field strain; [22]) was 1.88. The “Mortality caused by histomoniasis” value (histomonad field strain; [22]) was 5, the “Mean feed consumption between day 0 and day 14” value (histomonad field strain; [23]) was 9.59 kg and the “Mean feed conversion between day 0 and day 14” value (histomonad field strain; [23]) was 1.91. For the same molecule, the “Mortality caused by histomoniasis” value (histomonad field strain; [23]) was 4, the “Mean feed consumption between day 0 and day 14” value (histomonad field strain; [24]) was 9.14 kg and the “Mean feed conversion between day 0 and day 14” value (histomonad field strain; [24]) was 2.33. For the same molecule, the “Mortality caused by histomoniasis” value (histomonad field strain; [24]) was 4, the “Mean feed consumption between day 0 and day 14” value (histomonad field strain; [25]) was 10.40 kg and the “Mean feed conversion between day 0 and day 14” value (histomonad field strain; [25]) was 1.83. For the same molecule, the “Mortality caused by histomoniasis” value (histomonad field strain; [25]) was 2, the “Mean feed consumption between day 0 and day 14” value (histomonad field strain; [26]) was 11.79 kg and the “Mean feed conversion between day 0 and day 14” value (histomonad field strain; [26]) was 1.55. For the same molecule, the “Mortality caused by histomoniasis” value (histomonad field strain; [26]) was 0, the “Average lesions in the appendix” value (histomonad field strain; [3]) was 0.29 and the “Infection-related lesions in the liver” value (histomonad field strain; [3]) was 0.29. The “Average lesions in the appendix” value (histomonad field strain; [4]) was 0.00, the “Infection-related lesions in the liver” value (histomonad field strain; [4]) was 0.00 and the “Average lesions in the appendix” value (histomonad field strain; [5]) was 1.08. For the same molecule, the “Infection-related lesions in the liver” value (histomonad field strain; [5]) was 0.58, the “Average lesions in the appendix” value (histomonad field strain; [6]) was 0.53 and the “Infection-related lesions in the liver” value (histomonad field strain; [6]) was 0.27. For the same molecule, the “Average lesions in the appendix” value (histomonad field strain; [7]) was 0.47, the “Infection-related lesions in the liver” value (histomonad field strain; [7]) was 0.13 and the “Average lesions in the appendix” value (histomonad field strain; [8]) was 1.80. The “Infection-related lesions in the liver” value (histomonad field strain; [8]) was 0.73, the “Average lesions in the appendix” value (histomonad field strain; [9]) was 0.79 and the “Infection-related lesions in the liver” value (histomonad field strain; [9]) was 0.07. The “Average lesions in the appendix” value (histomonad field strain; [10]) was 0.27, the “Infection-related lesions in the liver” value (histomonad field strain; [10]) was 0.00 and the “Average lesions in the appendix” value (histomonad field strain; [11]) was 3.73. For the same molecule, the “Infection-related lesions in the liver” value (histomonad field strain; [11]) was 2.53, the “Average lesions in the appendix” value (histomonad field strain; [12]) was 3.53 and the “Infection-related lesions in the liver” value (histomonad field strain; [12]) was 2.53. For the same molecule, the “Average lesions in the appendix” value (histomonad field strain; [13]) was 3.79, the “Infection-related lesions in the liver” value (histomonad field strain; [13]) was 2.00 and the “Average lesions in the appendix” value (histomonad field strain; [14]) was 4.00. The “Infection-related lesions in the liver” value (histomonad field strain; [14]) was 1.80, the “Average lesions in the appendix” value (histomonad field strain; [15]) was 3.80 and the “Infection-related lesions in the liver” value (histomonad field strain; [15]) was 1.33. For the same molecule, the “Average lesions in the appendix” value (histomonad field strain; [16]) was 3.67, the “Infection-related lesions in the liver” value (histomonad field strain; [16]) was 1.33 and the “Average lesions in the appendix” value (histomonad field strain; [17]) was 2.53. The “Infection-related lesions in the liver” value (histomonad field strain; [17]) was 0.40, the “Average lesions in the appendix” value (histomonad field strain; [18]) was 1.20 and the “Infection-related lesions in the liver” value (histomonad field strain; [18]) was 0.00.
In the case of O=[N+]([O-])c1ccc([As](=O)(O)O)cc1 [Nita., nitarsone], the “Mean weight gain” value (histomonad field strain; [27]) was 782 g, the “Mean weight gain” value (histomonad field strain; [28]) was 725 g and the “Mean weight gain” value (histomonad field strain; [29]) was 541 g. The “Mean weight gain” value (histomonad field strain; [30]) was 426 g, the “Mean feed consumption between day 0 and day 14” value (histomonad field strain; [31]) was 11.64 kg and the “Mean feed conversion between day 0 and day 14” value (histomonad field strain; [31]) was 1.77. For the same molecule, the “Mortality caused by histomoniasis” value (histomonad field strain; [31]) was 1, the “Mean feed consumption between day 0 and day 14” value (histomonad field strain; [32]) was 9.82 kg and the “Mean feed conversion between day 0 and day 14” value (histomonad field strain; [32]) was 1.79. For the same molecule, the “Mortality caused by histomoniasis” value (histomonad field strain; [32]) was 2, the “Average lesions in the appendix” value (histomonad field strain; [27]) was 0.00 and the “Infection-related lesions in the liver” value (histomonad field strain; [27]) was 0.00. For the same molecule, the “Average lesions in the appendix” value (histomonad field strain; [28]) was 0.29, the “Infection-related lesions in the liver” value (histomonad field strain; [28]) was 0.21 and the “Average lesions in the appendix” value (histomonad field strain; [29]) was 2.26. The “Infection-related lesions in the liver” value (histomonad field strain; [29]) was 0.13, the “Average lesions in the appendix” value (histomonad field strain; [30]) was 3.07 and the “Infection-related lesions in the liver” value (histomonad field strain; [30]) was 0.79.
For CC(C)CC1C(=O)OC(Cc2ccccc2)C(=O)N(C)C(CC(C)C)C(=O)OC(C)C(=O)N(C)C(CC(C)C)C(=O)OC(Cc2ccccc2)C(=O)N(C)C(CC(C)C)C(=O)OC(C)C(=O)N1C (stereo not drawn) [PF1022A], the “Dose with full activity” value (Heterakis spumosa [1]) is given as 50 mg/kg, the “Dose at which active against Heterakis spumosa” value (Heterakis spumosa [2]) is given as 50 mg/kg and the “Dose with full activity” value (Ascaridia galli; Ascaridia galli (chicken)) is given as 2 mg/kg. The “Dose at which the compound acts against Ascaridia galli” value (Ascaridia galli; Ascaridia galli in chickens, ref (16)) was 2 mg/kg.
For CC(C)CC1C(=O)OC(Cc2ccc(N3CCOCC3)cc2)C(=O)N(C)C(CC(C)C)C(=O)OC(C)C(=O)N(C)C(CC(C)C)C(=O)OC(Cc2ccc(N3CCOCC3)cc2)C(=O)N(C)C(CC(C)C)C(=O)OC(C)C(=O)N1C [Emodepside, cyclo[(R)-lactoyl-N-methyl-L-leucyl-(R)-3-(p-morpholinophenyl)lactoyl-N-methyl-L-leucyl-(R)-lactoyl-N-methyl-L-leucyl-(R)-3-(p-morpholinophenyl)lactoyl-N-methyl-L-leucyl]], the “Dose with full activity” value (Heterakis spumosa [1]) is given as 1 to 10 mg/kg and the “Dose at which active against Heterakis spumosa” value (Heterakis spumosa [2]) is given as 1 to 10 mg/kg.
